Here are results for 2 molecules from ChEMBL document CHEMBL4402575.

This test concerns the target Transthyretin (Homo sapiens) (UniProt P02766). Nature of the test: Stabilization of wild type human transthyretin expressed in Escherichia coli BL21(DE3) Star assessed as fibril formation at 50 uM pre-incubated with transthyretin before amyloid beta (1 to 42) addition by ThT fluorescence assay.

`O=C(O)c1ccc2nc(-c3cc(Cl)cc(Cl)c3)oc2c1`: the Activity was determined as 24%. The same measure for `O=C(O)c1cc(-c2ccc(F)cc2F)ccc1O`: 26%.
